“Also recorded” adds a separate entry of the source.
How the values were obtained:
HSP72/BAG1 complex = molecular target: T1, HSP72/BAG1 complex (Homo sapiens, UniProt P0DMV8); experiment: FP probe KD determination with BAG1; format: binding
T1 construct: purchased Enzo Life Sciences (BAG-1M only)
Method: To assess what effect the secondary HSP72/BAG1 complex had on the apparent affinity of the non-nucleotide bisaryl-ATTO-488 FP-probe 11, we carried out a similar BAG1 study. […] To confirm that the binding of BAG1 to HSP72 was not mutually exclusive, we screened the nucleotides ADP and ATP in a competition assay with bisaryl-ATTO-488 11 and HSP72 at a 50% bound fraction, with and without a saturating concentration of BAG1 (700 nM) (Fig. S7, ESI ^†). […]
mM TRIS base pH 7.4, 100 mM NaCl, 1 mM DTT, 1% (v/v) glycerol) or BAG1 replacement buffer (5 μL, 20 mM TRIS base pH 7.4, 100 mM NaCl, 1 mM DTT, 1% (v/v) glycerol) was added to the corresponding wells of the assay plate. Fluorescence polarisation values for probe and HSP72 ± BAG1 were plotted using GraphPad prism 6.
KD determination with BAG1: To each well, 5 μL containing probe molecule (20 nM in assay buffer) and BAG1 protein (1.4 μM in assay buffer) and increasing concentrations of HSP70 protein (5 μL, two-fold dilution series) were added. Fluorescence polarisation values for tracer control wells (10 nM probe in assay buffer only) were subtracted from each data point prior to data analysis. KD determination was performed using non-linear regression analysis (GraphPad Prism 6, one site–specific binding […]

HSP72 = molecular target: T2, HSP72 (Homo sapiens, UniProt P0DMV8); experiment: FP assay binding window and Z' determination
T2 construct: made in house
T2 sequence (P0DMV8 whole entry): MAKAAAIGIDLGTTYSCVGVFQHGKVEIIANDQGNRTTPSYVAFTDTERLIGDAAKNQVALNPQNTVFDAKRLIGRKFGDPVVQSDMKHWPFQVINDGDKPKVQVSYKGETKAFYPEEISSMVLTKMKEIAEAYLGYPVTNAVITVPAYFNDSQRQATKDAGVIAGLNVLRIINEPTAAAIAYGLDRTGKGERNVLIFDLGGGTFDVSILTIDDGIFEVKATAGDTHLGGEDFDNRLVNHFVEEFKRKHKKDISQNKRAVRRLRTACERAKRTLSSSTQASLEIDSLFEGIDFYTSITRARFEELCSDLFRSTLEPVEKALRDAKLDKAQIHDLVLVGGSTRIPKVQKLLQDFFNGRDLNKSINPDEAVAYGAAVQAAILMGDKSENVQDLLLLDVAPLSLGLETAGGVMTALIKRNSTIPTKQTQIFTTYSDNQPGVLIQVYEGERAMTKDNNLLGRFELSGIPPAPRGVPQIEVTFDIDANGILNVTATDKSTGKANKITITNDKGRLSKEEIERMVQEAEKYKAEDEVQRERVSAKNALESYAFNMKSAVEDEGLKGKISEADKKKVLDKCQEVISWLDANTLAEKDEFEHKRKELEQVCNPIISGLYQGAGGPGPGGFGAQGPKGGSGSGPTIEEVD
Source text: As a result, the assay was not statistically robust, so could not be used in competition experiments (Z′ = 0.36).[11],[20],[21] We hypothesised that the high lipophilicity of 10 (clog P = 6.9) was causing the small binding window, either due to aggregation, even at very low concentrations, or its large hydrate volume.[22] Because the lipophilicity of the specific-ligand portion of the probe was fixed by the need for high affinity to the HSP70 target, we focused on changes to the solvent exposed fluorophore. ATTO-488, a green-shifted fluorophore that contains two sulfonic acid groups, was selected as an alternative to fluorescein (see ESI ^†), as this reduced the clog P of the bisaryl probe 11 to –3.9.[21] The binding window of ATTO-488 bisaryl FP-probe 11 measured at a fixed and apparently saturating concentration of HSP72 (5 μM), was now greater than 150 mP (Z′ = 0.63, Fig. 3A and Fig. S1, ESI ^†). […]
TRIS Tris(hydroxymethyl)aminomethane
General Information: Unless otherwise stated the aqueous assay buffer contained 50 mM TRIS base pH 7.4, 150 mM NaCl, 6 mM MgCl2, 1 mM DTT, 0.1% (wt/wt) CHAPS. The assay was conducted using 384 Plus F ProxiPlates (PerkinElmer) with a final assay volume of 10 μL. Plates were centrifuged at 1000 rpm for 1 minute prior to incubation and read using an 2103 Envision Multilable Plate Reader. Excitation and emission wavelengths used for green probes were 480 nm and 535 nm, respectively.
Fluorescence polarisation was measured in units of millipolarization (mP). All experiments were performed in triplicate, unless otherwise stated. Data were plotted and analysed using GraphPad Prism 6, graphical data represents the mean ± standard error of the mean for a single representative experiment. ATP-derived fluorescent probes (1.0 mM in aqueous) were purchased from Jena Bioscience. Human BAG-1M (10.9 μM in 20 mM TRIS base pH 7.4, 100 mM NaCl, 1 mM DTT, 1% (v/v) glycerol) was purchased from Enzo Life Sciences.
Determination of optimal probe concentration: To each well, 5 μL of HSP72 (10 µM in assay buffer) or 5 μL assay buffer and increasing concentrations of probe (5 μL, two-fold dilution series) were added. Fluorescence polarisation values for the tracer ± protein were plotted using GraphPad prism 6. […]
Z’ determination: To each well, 5 µL of probe (20 nM in assay buffer) and either 5 µL of HSP70 (in assay buffer) or 5 µL of assay buffer were added. Fluorescent polarisation values from 96 wells were used to calculate the mean and standard deviation for each data set. Z’-factors were calculated using the equation given below (sample refers to probe in the absence of protein and control refers to probe in the presence of protein). […]

T1 sequence (P0DMV8 whole entry): as above
T1 sequence (Q99933 72-345 partner limits assumed): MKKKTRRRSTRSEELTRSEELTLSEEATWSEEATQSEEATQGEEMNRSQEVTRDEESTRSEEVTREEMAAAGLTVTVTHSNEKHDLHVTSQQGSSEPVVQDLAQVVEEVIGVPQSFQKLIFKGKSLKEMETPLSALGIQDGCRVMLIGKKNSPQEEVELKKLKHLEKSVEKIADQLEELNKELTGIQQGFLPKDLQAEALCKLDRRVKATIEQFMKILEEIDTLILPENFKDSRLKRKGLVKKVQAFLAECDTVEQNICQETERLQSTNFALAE

`CN(CCCC(=O)NCCCCCCNc1ncnc2c1nc(NCc1ccc3ncccc3c1)n2[C@@H]1O[C@H](COCc2ccc(C(F)(F)F)cc2)[C@@H](O)[C@H]1O)C(=O)c1ccccc1-c1c2ccc(=N)c(S(=O)(=O)O)c-2oc2c(S(=O)(=O)O)c(N)ccc12` [compound 11] was tested, and the Kd (HSP72/BAG1 complex; 700 nM BAG1) was 141 nM, the “effect of BAG1 on affinity of the probe for HSP72” value (HSP72/BAG1 complex; saturating BAG1 (700 nM)) was “maintained; also recorded: no significant change” and the “Z'” value (HSP72; FP assay with HSP72) was 0.63. For the same compound, the “assay (binding) window” value (HSP72; presence vs absence of 5 μM HSP72) was “greater than 150 mP”.

Reference: article PMC5708526, “Targeting secondary protein complexes in drug discovery: studying the druggability and chemical biology of the HSP70/BAG1 complex” (Chemical Communications (Cambridge, England), 2017)
